In ChEMBL document CHEMBL1201862, “PubChem BioAssay data set” (2004):
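Growth conditions: 96-well plates. Treatment: test compound, 48 hours, 5 concentrations. Analysis: linear interpolation between bracketing concentrations; unreached endpoints set to highest concentration. GI50 = concentration required for 50% inhibition of growth.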 Activity calls are given as the source filed them. Rule as the data show it: active = GI50 up to about 1.1 µM and inactive = higher.

Experiments:
Assay in all cases: NCI-60 cell line screen, 48 h
CAKI-1 = test system: CAKI-1
TK-10 = test system: TK-10
MDA-MB-435 = test system: MDA-MB-435
HOP-62 = test system: HOP-62
Hs-578T = test system: Hs-578T
DU-145 = test system: DU-145
COLO 205 = test system: COLO 205
UACC-257 = test system: UACC-257
HCT-15 = test system: HCT-15
HCC 2998 = test system: HCC 2998
SNB-75 = test system: SNB-75
HOP-92 = test system: HOP-92
MDA-MB-231 = test system: MDA-MB-231
UO-31 = test system: UO-31
786-0 = test system: 786-0
A498 = test system: A498
NCI-H226 = test system: NCI-H226
OVCAR-5 = test system: OVCAR-5
T47D = test system: T47D

SMILES	GI50 (CAKI-1)	GI50 (TK-10)	GI50 (MDA-MB-435)	GI50 (HOP-62)	GI50 (Hs-578T)	GI50 (DU-145)	GI50 (COLO 205)	GI50 (UACC-257)	GI50 (HCT-15) [µM]	GI50 (HCC 2998)	GI50 (SNB-75)	GI50 (HOP-92)	GI50 (MDA-MB-231)	GI50 (UO-31)	GI50 (786-0)	GI50 (A498)	GI50 (NCI-H226)	GI50 (OVCAR-5)	GI50 (T47D)
C/C(=N/NC(=S)N(C)CCc1ccccn1)c1cnccn1	< 0.01 µM (active)	< 0.01 µM (active)	0.867 µM (active)	< 0.0246 µM (active)	2.63 µM (inactive)	0.378 µM (active)	< 0.01 µM (active)	< 0.015 µM (active)	< 0.01	1.4 µM (inactive)	4.19 µM (inactive)	3.35 µM (inactive)	< 0.01 µM (active)	< 0.0182 µM (active)	0.0977 µM (active)	17.7 µM (inactive)	< 0.01 µM (active)	0.516 µM (active)	
CN(CCNC(=O)c1nn(C)c2c1Cc1ccccc1-2)CCNC(=O)c1nn(C)c2c1Cc1ccccc1-2	18.4 µM (inactive)	15.7 µM (inactive)	15.2 µM (inactive)	15.4 µM (inactive)		17.9 µM (inactive)	11.9 µM (inactive)	14 µM (inactive)	16.7	12.5 µM (inactive)	14.4 µM (inactive)	12.9 µM (inactive)	19 µM (inactive)	10.4 µM (inactive)	14.5 µM (inactive)	15.2 µM (inactive)	18.3 µM (inactive)	26.8 µM (inactive)	22.5 µM (inactive)
CN(C)S(=O)(=O)/N=C/c1cccc(/C=N/S(=O)(=O)N(C)C)c1	> 100 µM (inactive)	> 100 µM (inactive)	44.8 µM (inactive)	> 100 µM (inactive)		> 100 µM (inactive)	65.9 µM (inactive)	> 100 µM (inactive)	> 100	> 100 µM (inactive)	22.9 µM (inactive)	32.1 µM (inactive)	> 100 µM (inactive)	> 100 µM (inactive)	> 100 µM (inactive)	> 100 µM (inactive)	> 100 µM (inactive)	> 100 µM (inactive)	> 100 µM (inactive)
Cn1nc(S(N)(=O)=O)s/c1=N/S(=O)(=O)c1ccc(N)cc1	> 100 µM (inactive)	> 100 µM (inactive)		> 100 µM (inactive)		> 100 µM (inactive)	> 100 µM (inactive)		> 100	> 100 µM (inactive)	> 100 µM (inactive)	> 100 µM (inactive)	> 100 µM (inactive)	> 100 µM (inactive)	> 100 µM (inactive)	> 100 µM (inactive)	> 100 µM (inactive)	> 100 µM (inactive)	
CCc1cc(-c2nsc(=O)o2)c(S(=O)(=O)CC)s1	56.9 µM (inactive)	> 100 µM (inactive)	55.3 µM (inactive)	> 100 µM (inactive)	> 100 µM (inactive)	> 100 µM (inactive)	> 100 µM (inactive)		52.7	37.2 µM (inactive)	> 100 µM (inactive)	98.9 µM (inactive)		> 100 µM (inactive)	> 100 µM (inactive)	> 100 µM (inactive)	> 100 µM (inactive)	> 100 µM (inactive)	76.7 µM (inactive)
N=NCC(=O)OC(COCc1ccccc1)COCc1ccccc1	37.9 µM (inactive)	> 100 µM (inactive)	> 100 µM (inactive)	> 100 µM (inactive)		36.3 µM (inactive)	96.4 µM (inactive)	> 100 µM (inactive)	> 100	> 100 µM (inactive)		10.2 µM (inactive)	> 100 µM (inactive)	21.9 µM (inactive)	> 100 µM (inactive)	> 100 µM (inactive)	> 100 µM (inactive)	> 100 µM (inactive)	
O=C(Nc1ccc(C(F)(F)F)cc1)NC(F)(F)F	34.5 µM (inactive)	35.9 µM (inactive)	> 100 µM (inactive)		> 100 µM (inactive)		> 100 µM (inactive)	> 100 µM (inactive)	> 100	> 100 µM (inactive)	> 100 µM (inactive)			> 100 µM (inactive)	> 100 µM (inactive)	> 100 µM (inactive)		> 100 µM (inactive)	> 100 µM (inactive)
COc1cc2c(c(OC)c1OC)C(=O)[C@@H](O)[C@H]2NC(N)=O	> 100 µM (inactive)	> 100 µM (inactive)	> 100 µM (inactive)	> 100 µM (inactive)	> 100 µM (inactive)	> 100 µM (inactive)	> 100 µM (inactive)	> 100 µM (inactive)	> 100	> 100 µM (inactive)	> 100 µM (inactive)		> 100 µM (inactive)	> 100 µM (inactive)	> 100 µM (inactive)		> 100 µM (inactive)	> 100 µM (inactive)	31.6 µM (inactive)
COc1cc(COC(=O)N[C@H](C(=O)O)C(C)(C)C)c([N+](=O)[O-])cc1OC		> 100 µM (inactive)	> 100 µM (inactive)	> 100 µM (inactive)	> 100 µM (inactive)	> 100 µM (inactive)	> 100 µM (inactive)	> 100 µM (inactive)	> 100	> 100 µM (inactive)	> 100 µM (inactive)	> 100 µM (inactive)		> 100 µM (inactive)	> 100 µM (inactive)	> 100 µM (inactive)	> 100 µM (inactive)	> 100 µM (inactive)	> 100 µM (inactive)
O=C(CNc1ccccc1[N+](=O)[O-])Nn1cnc2ccc(S(=O)(=O)Nc3ccccc3[N+](=O)[O-])cc2c1=O	> 100 µM (inactive)	> 100 µM (inactive)	> 100 µM (inactive)	> 100 µM (inactive)	22.1 µM (inactive)	> 100 µM (inactive)	> 100 µM (inactive)	> 100 µM (inactive)	> 100	> 100 µM (inactive)	> 100 µM (inactive)	> 100 µM (inactive)	> 100 µM (inactive)	73.8 µM (inactive)	> 100 µM (inactive)		> 100 µM (inactive)	> 100 µM (inactive)	
CCCCc1c(N(C)C)c(OC(C)=O)c(-c2cn(C)c3ccccc23)oc1=O	30.7 µM (inactive)	40 µM (inactive)	19.1 µM (inactive)	19.8 µM (inactive)	43 µM (inactive)	54.6 µM (inactive)	19.1 µM (inactive)	22.5 µM (inactive)	19.4		25.1 µM (inactive)	< 0.01 µM (active)		20.8 µM (inactive)	34.8 µM (inactive)	28.8 µM (inactive)	8.71 µM (inactive)	31.6 µM (inactive)	29.6 µM (inactive)
COC(=O)C(C(=O)C(=O)Nc1cccc(OC)c1)c1cnc2ccccc2n1 (stereo unspecified)	> 100 µM (inactive)	> 100 µM (inactive)		> 100 µM (inactive)			> 100 µM (inactive)	> 100 µM (inactive)	> 100	> 100 µM (inactive)	> 100 µM (inactive)	> 100 µM (inactive)		> 100 µM (inactive)	> 100 µM (inactive)	> 100 µM (inactive)	> 100 µM (inactive)	> 100 µM (inactive)	
O=C1C(Cl)C(c2ccc([N+](=O)[O-])cc2)N1n1cnc2ccccc2c1=O (stereo unspecified)	60.1 µM (inactive)	25.3 µM (inactive)		34.5 µM (inactive)			> 100 µM (inactive)	> 100 µM (inactive)	> 100	73.6 µM (inactive)	13.9 µM (inactive)			71 µM (inactive)	20.7 µM (inactive)		51.6 µM (inactive)	> 100 µM (inactive)	
O=C1C2CC=CCC2C(=O)N1n1c(Cc2ccccc2)n[nH]c1=O (stereo unspecified)	> 100 µM (inactive)	> 100 µM (inactive)	> 100 µM (inactive)	> 100 µM (inactive)	> 100 µM (inactive)		> 100 µM (inactive)	> 100 µM (inactive)	> 100	> 100 µM (inactive)		> 100 µM (inactive)	> 100 µM (inactive)	> 100 µM (inactive)	> 100 µM (inactive)	> 100 µM (inactive)	> 100 µM (inactive)	> 100 µM (inactive)	> 100 µM (inactive)
CCCCc1ccc(-n2sc3ncccc3c2=O)cc1		14.4 µM (inactive)	16.3 µM (inactive)	11 µM (inactive)	15.7 µM (inactive)	21 µM (inactive)	17.3 µM (inactive)	16.3 µM (inactive)	5.52	5.35 µM (inactive)	22.4 µM (inactive)		15.6 µM (inactive)	11.3 µM (inactive)	9.42 µM (inactive)		7.67 µM (inactive)	18.5 µM (inactive)	13 µM (inactive)
CC(=O)OCC1OC(c2nc3ccccc3s2)=CC(OC(C)=O)C1OC(C)=O (stereo unspecified)	> 100 µM (inactive)	> 100 µM (inactive)	> 100 µM (inactive)	> 100 µM (inactive)	> 100 µM (inactive)	> 100 µM (inactive)	> 100 µM (inactive)	> 100 µM (inactive)			22.2 µM (inactive)		> 100 µM (inactive)	> 100 µM (inactive)	> 100 µM (inactive)	> 100 µM (inactive)	> 100 µM (inactive)	> 100 µM (inactive)	
CC(=O)/C(=C/N1C(=O)CC(=O)NC1=S)C(=O)Nc1ccccc1C	87.9 µM (inactive)	> 100 µM (inactive)	66.8 µM (inactive)	23.3 µM (inactive)		97.3 µM (inactive)	> 100 µM (inactive)	80.5 µM (inactive)	42.5	29.4 µM (inactive)	91.6 µM (inactive)	> 100 µM (inactive)	> 100 µM (inactive)	> 100 µM (inactive)	21.7 µM (inactive)	28.1 µM (inactive)	> 100 µM (inactive)	> 100 µM (inactive)	81.3 µM (inactive)
